Experimental data reported in patent publication US6096771A, “Isoxazole derivatives” (Sankyo Company, Limited, priority 1994, dated 2000).
Structures can show the parent of a compound that is named as a salt.

Key:
B-type monoamine oxidase = biological target: T1, B-type monoamine oxidase (Mus musculus, UniProt Q8BW75); experiment: Monoamine oxidase-inhibitory activity, B-type (crude mitochondria of mouse brain, 14C-2-phenylethylamine substrate); format: biochemical; conditions: 14C-PEA 20 μM, pH 7.4, 38° C.
T1 sequence (Q8BW75 1-520): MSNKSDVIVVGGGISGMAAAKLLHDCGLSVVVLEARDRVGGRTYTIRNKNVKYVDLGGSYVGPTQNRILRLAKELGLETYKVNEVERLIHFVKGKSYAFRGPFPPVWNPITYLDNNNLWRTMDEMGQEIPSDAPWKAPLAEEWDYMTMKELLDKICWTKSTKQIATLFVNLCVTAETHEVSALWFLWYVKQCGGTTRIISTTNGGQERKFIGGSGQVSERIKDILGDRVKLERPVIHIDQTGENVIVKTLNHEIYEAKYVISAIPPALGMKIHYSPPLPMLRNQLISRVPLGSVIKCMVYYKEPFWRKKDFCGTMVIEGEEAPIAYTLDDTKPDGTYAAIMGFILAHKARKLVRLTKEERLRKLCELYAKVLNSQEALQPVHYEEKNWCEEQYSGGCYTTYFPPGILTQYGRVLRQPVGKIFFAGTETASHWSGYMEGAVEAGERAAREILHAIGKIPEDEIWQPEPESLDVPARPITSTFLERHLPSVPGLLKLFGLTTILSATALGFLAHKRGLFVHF

[1] = Farmaco, Ed. Sci., 23, 1081 (1968); 24, 440 (1969); cited from earlier work
[2] = Farmaco, Ed. Sci., 23, 1081 (1968); 24, 440 (1969); cited from earlier work; remark: listed apart in the source

Row | Compound | IC50 (B-type monoamine oxidase; 20 min preincubation) [nM] | further results
1 | NCCOc1noc2ncccc12 [10(e), 3-(2-Aminoethoxy)pyrido[3,2-d]isoxazole Dihydrochloride] | 10.2 | –
2 | NCCOc1noc2ncccc12 [10(f), 3-(2-Aminoethoxy)pyrido[3,2-d]isoxazole Hydrochloride] | 13.5 | –
3 | CNCCOc1noc2ccccc12 [Compound A, 3(2-N-Methylamino)ethoxy-1,2-benzisoxazole, reference compound] | – | IC50 (B-type monoamine oxidase; reference compounds A and B): 2350 nM
4 | CN(C)CCOc1noc2ccccc12 [Compound B, 3(2-N,NDimethylamino)ethoxy-1,2-benzisoxazole] | – | local (infiltration) anaesthetic effect [1]: local (infiltration) anaesthetic effect; anti-inflammatory effects [2]: possesses anti-inflammatory effects; IC50 (B-type monoamine oxidase; reference compounds A and B): 4700 nM
5 | NCCOc1noc2ccc(Cl)cc12 [Example 1, 3-(2-Aminoethoxy)-5-chloro-1,2-benzisoxazole hydrochloride] | 0.37 | –
6 | NCCOc1noc2ccccc12 [Example 2, 3-(2-Aminoethoxy)-1,2-benzisoxazole hydrochloride] | 1.85 | –
7 | NCCOc1noc2ccc(F)cc12 [Example 5, 3-(2-Aminoethoxy)-5-fluoro-1,2-benzisoxazole hydrochloride] | 1.35 | –
8 | COc1ccc2onc(OCCN)c2c1 [Example 6, 3-(2-Aminoethoxy)-5-methoxy-1,2-benzisoxazole hydrochloride] | 5.6 | –
9 | Cc1ccc2onc(OCCN)c2c1 [Example 7, 3-(2-Aminoethoxy)-5-methyl-1,2-benzisoxazole Hydrochloride] | 0.56 | –
10 | NCCOc1noc2ccc([N+](=O)[O-])cc12 [Example 8, 3-(2-Aminoethoxy)-5-nitro-1,2-benzisoxazole Hydrochloride] | 0.56 | –
11 | NCCOc1noc2c(Cl)cccc12 [Example 9, 3-(2-Aminoethoxy)-7-chloro-1,2-benzisoxazole Hydrochloride] | 20 | –
12 | NCCOc1noc2cc(Cl)ccc12 [Example 11, 3-(2-Aminoethoxy)-6-chloro-1,2-benzisoxazole Hydrochloride] | 2.8 | –
13 | NCCOc1noc2c(Cl)cc(Cl)cc12 [Example 12, 3-(2-Aminoethoxy)-5,7-dichloro-1,2-benzisoxazole Hydrochloride] | 26.5 | –
14 | Cc1cccc2c(OCCN)noc12 [Example 13, 3-(2-Aminoethoxy)-7-methyl-1,2-benzisoxazole Hydrochloride] | 27.5 | –
15 | Cc1ccc2c(OCCN)noc2c1 [Example 14, 3-(2-Aminoethoxy)-6-methyl-1,2-benzisoxazole Hydrochloride] | 21.5 | –
16 | NCCOc1noc2ccc(Br)cc12 [Example 15, 3-(2-Aminoethoxy)-5-bromo-1,2-benzisoxazole Hydrochloride] | 0.32 | –
17 | Cc1c(F)ccc2onc(OCCN)c12 [Example 17, 3-(2-Aminoethoxy)-5-fluoro-4-methyl-1,2-benzisoxazole Hydrochloride] | 4.2 | –
18 | CSc1c(F)ccc2onc(OCCN)c12 [Example 21, 3-(2-Aminoethoxy)-5-fluoro-4-methylthio-1,2-benzisoxazole Hydrochloride] | 4.7 | –
19 | N#Cc1cccc2onc(OCCN)c12 [Example 24, 3-(2-Aminoethoxy)-4-cyano-1,2-benzisoxazole hydrochloride] | 6.8 | –
20 | NCCSc1noc2ccc(F)cc12 [Example 26, 3-(2-Aminoethylthio)-5-fluoro-1,2-benzisoxazole hydrochloride] | 2.7 | –
21 | COc1ccc2onc(SCCN)c2c1 [Example 33, 3-(2-Aminoethylthio)-5-methoxy-1,2-benzisoxazole hydrochloride] | 4.5 | –
22 | Cc1ccc2onc(SCCN)c2c1 [Example 34, 3-(2-Aminoethylthio)-5-methyl-1,2-benzisoxazole hydrochloride] | 2.2 | –
23 | NCCSc1noc2ccc([N+](=O)[O-])cc12 [Example 35, 3-(2-Aminoethylthio)-5-nitro-1,2-benzisoxazole hydrochloride] | 9 | –
24 | NCCSc1noc2ccc(Cl)cc12 [Example 38, 3-(2-Aminoethylthio)-5-chloro-1,2-benzisoxazole hydrochloride] | 2.95 | –
25 | COC(=O)c1ccc2onc(OCCN)c2c1 [Example 42, 3-(2-Aminoethoxy)-5-methoxycarbonyl-1,2-benzisoxazole hydrochloride] | 18 | –
26 | NCCOc1noc2ccc(OC(F)F)cc12 [Example 44, 3-(2-Aminoethoxy)-5-difluoromethoxy-1,2-benzisoxazole hydrochloride] | 6 | –
27 | Cc1cc(Cl)cc2c(SCCN)noc12 [Example 56, 3-(2-Aminoethylthio)-5-chloro-7-methyl-1,2-benzisoxazole hydrochloride] | 6.6 | –
